Assays:
[1] = clinical; settings: human, in vivo, iv, Vdss
[2] = clinical; settings: human, in vivo, iv
[3] = clinical; settings: human, in vivo, iv; remark: listed apart in the source
[4] = clinical; settings: human, in vivo, iv, t1/2
[5] = clinical; settings: human, in vivo, iv, CL

| Structure (SMILES) | Vd [1] [L/kg] | fraction unbound [2] | MRT [3] [h] | half-life [4] [h] | clearance [5] [mL/min/kg] |
| --- | --- | --- | --- | --- | --- |
| CCCC(=O)OCOC(=O)C1=C(C)NC(C)=C(C(=O)OC)C1c1cccc(Cl)c1Cl (stereo unspecified) [CLEVIDIPINE] | 0.58 | 0.0038 | 0.07 | 0.3 |  |
| COC(=O)[C@H]1[C@@H](OC(=O)c2ccccc2)C[C@@H]2CC[C@H]1N2C [COCAINE] |  | 0.12 | 1 | 0.76 |  |
| Nc1ccc(S(=O)(=O)c2ccc(N)cc2)cc1 [DAPSONE] | 0.83 | 0.25 | 29 |  |  |
| O=c1[nH]cc(F)c(=O)[nH]1 [FLUOROURACIL] |  | 0.64 |  |  |  |
| COc1ccc(Cl)cc1C(=O)NCCc1ccc(S(=O)(=O)NC(=O)NC2CCCCC2)cc1 [GLYBURIDE] | 0.08 | 0.021 | 1.6 | 2.2 |  |
| CN(C)CCCN1c2ccccc2CCc2ccccc21 [IMIPRAMINE] | 12 | 0.075 |  |  |  |
| N=C(N)c1ccc(C(=O)N[C@@H](Cc2ccc(O)cc2)C(=O)N2CCC(OCC(=O)O)CC2)cc1 [LAMIFIBAN] |  | 0.94 | 2.5 | 2.1 |  |
| N[C@@H](Cc1ccc(O)c(O)c1)C(=O)O [LEVODOPA] |  | 0.76 | 1.2 | 1.3 |  |
| C=CCN1CC[C@]23c4c5ccc(O)c4O[C@H]2C(=O)CC[C@@]3(O)[C@H]1C5 [NALOXONE] | 1.7 | 0.54 | 1.2 | 1.1 |  |
| O=C1CN(/N=C/c2ccc([N+](=O)[O-])o2)C(=O)N1 [NITROFURANTOIN] | 0.57 | 0.17 | 0.98 | 0.97 |  |
| CCN(CC)CC#CCOC(=O)C(O)(c1ccccc1)C1CCCCC1 (stereo unspecified) [OXYBUTYNIN] | 0.85 | 0.0034 | 2.7 | 7.2 |  |
| CC(=O)O[C@H]1C[C@@H]2CC[C@@H]3[C@H](CC[C@@]4(C)[C@H]3C[C@H]([N+]3(C)CCCCC3)[C@@H]4OC(C)=O)[C@@]2(C)C[C@@H]1[N+]1(C)CCCCC1 [PANCURONIUM] | 0.2 | 0.09 | 2.2 | 1.9 |  |
| CCOc1ccc(NC(C)=O)cc1 [PHENACETIN] | 1.4 | 0.47 | 1.1 | 0.92 |  |
| COc1ccc(-c2nc3ccc(C4=NNC(=O)CC4C)cc3[nH]2)cc1 (stereo unspecified) [PIMOBENDAN] | 2.04 | 0.024 | 2.2 | 1.8 |  |
| C[C@]12C=CC(=O)C=C1CC[C@@H]1[C@@H]2[C@@H](O)C[C@@]2(C)[C@H]1CC[C@]2(O)C(=O)CO [PREDNISOLONE] |  | 0.25 |  |  |  |
| CC(CN1c2ccccc2Sc2ccccc21)N(C)C (stereo unspecified) [PROMETHAZINE] |  | 0.09 |  |  |  |
| C[C@@H](O)[C@H]1C(=O)N2C(C(=O)O)=C(SCCOC(N)=O)S[C@H]12 [Sch-34343] | 0.3 | 0.35 | 0.67 | 0.8 |  |
| CCO[C@@H](Cc1ccc(OCCc2ccc(OS(C)(=O)=O)cc2)cc1)C(=O)O [TESAGLITAZAR] | 0.13 |  | 56 | 45 | 0.039 |
| S=P(N1CC1)(N1CC1)N1CC1 [THIOTEPA] | 1.6 |  | 4 | 2.7 | 6.7 |
| Cc1ccsc1C(=CCCN1CCC[C@@H](C(=O)O)C1)c1sccc1C [TIAGABINE] | 1.1 |  | 12 | 10 | 1.6 |
| CC(C)(C)NC[C@H](O)COc1nsnc1N1CCOCC1 [TIMOLOL] | 1.5 |  | 3 | 2.2 | 8.5 |
| CCS(=O)(=O)CCn1c([N+](=O)[O-])cnc1C [TINIDAZOLE] | 0.59 |  | 16 | 13 | 0.6 |
| Clc1ccc2nsnc2c1NC1=NCCN1 [TIZANIDINE] | 2.4 |  | 3.6 | 2.4 | 11 |
| Cc1cccc(C)c1NC(=O)C(C)N (stereo unspecified) [TOCAINIDE] | 1.8 |  | 14 | 12 | 2.2 |
| Cc1ccc(O)c([C@H](CCN(C(C)C)C(C)C)c2ccccc2)c1 [TOLTERODINE] | 1.5 |  | 2.98 | 2.4 | 8.4 |

| Structure (SMILES) | Vd [1] [L/kg] | fraction unbound [2] | MRT [3] [h] | half-life [4] [h] | clearance [5] [mL/min/kg] |
| --- | --- | --- | --- | --- | --- |
| CC[C@@]1(O)C(=O)OCc2c1cc1n(c2=O)Cc2cc3c(CN(C)C)c(O)ccc3nc2-1 [TOPOTECAN] |  | 0.65 |  |  |  |
| Cc1cccc(Nc2ccncc2S(=O)(=O)NC(=O)NC(C)C)c1 [TORSEMIDE] | 0.21 |  | 6.6 | 5.1 | 0.53 |
| COc1cc2c(cc1O)CCN[C@]21CS[C@@H]2c3c(OC(C)=O)c(C)c4c(c3[C@H](COC1=O)N1[C@@H]2[C@H]2c3c(cc(C)c(OC)c3O)C[C@@H]([C@@H]1O)N2C)OCO4 [TRABECTEDIN] | 25 |  | 35 | 44 | 12 |
| COc1cccc(C2(O)CCCCC2CN(C)C)c1 (stereo unspecified) [TRAMADOL] | 2.8 |  | 7.2 | 5.8 | 6.5 |
| NC[C@H]1CC[C@H](C(=O)O)CC1 [TRANEXAMIC ACID] | 0.38 |  | 2.6 | 2.3 | 2.4 |
| O=c1n(CCCN2CCN(c3cccc(Cl)c3)CC2)nc2ccccn12 [TRAZODONE] | 0.52 |  | 6.2 | 7.3 | 1.4 |
| COc1cc2c(N)nc(N3CCN(C(=O)OCC(C)(C)O)CC3)nc2c(OC)c1OC [TRIMAZOSIN] | 0.18 |  | 3.1 | 3.1 | 0.96 |
| CN1[C@@H]2CC[C@H]1C[C@@H](OC(=O)c1c[nH]c3ccccc13)C2 [TROPISETRON] | 9.7 |  | 6.3 | 5.6 | 26 |
| CCCC[C@@H]1CC(=O)[C@]2(O)O[C@@H]3[C@@H](NC)[C@@H](O)[C@@H](NC)[C@H](O)[C@H]3O[C@@H]2O1 [TROSPECTOMYCIN] | 0.7 |  | 6.9 | 11 | 1.7 |
| Nc1ccn([C@@H]2CO[C@H](CO)O2)c(=O)n1 [TROXACITABINE] | 1 |  | 6.9 | 82 | 2.4 |
| CN[C@H](CC(C)C)C(=O)N[C@H]1C(=O)N[C@@H](CC(N)=O)C(=O)N[C@H]2C(=O)N[C@H]3C(=O)N[C@H](C(=O)N[C@H](C(=O)O)c4cc(O)cc(O)c4-c4cc3ccc4O)[C@H](O)c3ccc(c(Cl)c3)Oc3cc2cc(c3O[C@@H]2O[C@H](CO)[C@@H](O)[C@H](O)[C@H]2O[C@H]2C[C@](C)(N)[C@H](O)[C@H](C)O2)Oc2ccc(cc2Cl)[C@H]1O [VANCOMYCIN] | 0.54 |  | 6.9 | 6.5 | 1.3 |
| CCOc1ccccc1OCC1CNCCO1 (stereo unspecified) [VILOXAZINE] | 0.73 |  | 5.8 | 4.1 | 2.1 |
| CC[C@]1(O)C[C@H]2CN(CCc3c([nH]c4ccccc34)[C@@](C(=O)OC)(c3cc4c(cc3OC)N(C=O)[C@H]3[C@@](O)(C(=O)OC)[C@H](OC(C)=O)[C@]5(CC)C=CCN6CC[C@]43[C@@H]65)C2)C1 [VINCRISTINE] | 2.4 |  | 20 | 23 | 2 |
| CC[C@]1(O)C[C@@H]2CN(CCc3c([nH]c4ccccc34)[C@@](C(=O)OC)(c3cc4c(cc3OC)N(C)[C@H]3[C@@](O)(C(N)=O)[C@H](O)[C@]5(CC)C=CCN6CC[C@]43[C@@H]65)C2)C1 [VINDESINE] | 5 |  | 38 | 35 | 2.2 |
| C[C@@H](c1ncncc1F)[C@](O)(Cn1cncn1)c1ccc(F)cc1F [VORICONAZOLE] | 2.2 | 0.42 | 4.4 | 5.6 |  |
| O=C(NCCNCC(O)COc1ccc(O)cc1)N1CCOCC1 (stereo unspecified) [XAMOTEROL] | 0.64 |  | 3.6 | 7.7 | 3 |
| CCN(C(C)=O)c1cccc(-c2ccnc3c(C#N)cnn23)c1 [ZALEPLON] | 1.3 | 0.4 | 1.4 |  |  |
| CC(=O)N[C@H]1[C@H]([C@H](O)[C@H](O)CO)OC(C(=O)O)=C[C@@H]1N=C(N)N [ZANAMIVIR] | 0.23 |  | 2.4 | 1.7 | 1.6 |
| Cc1cn([C@H]2C[C@H](N=[N+]=[N-])[C@@H](CO)O2)c(=O)[nH]c1=O [ZIDOVUDINE] | 1.8 | 0.8 | 1.2 | 1.3 |  |
| O=C1Cc2cc(CCN3CCN(c4nsc5ccccc45)CC3)c(Cl)cc2N1 [ZIPRASIDONE] | 1 |  | 3.3 | 3.1 | 5.1 |
| CN(C)CCc1c[nH]c2ccc(C[C@H]3COC(=O)N3)cc12 [ZOLMITRIPTAN] | 1.8 |  | 4.6 | 3.6 | 6.7 |
| Cc1ccc(-c2nc3ccc(C)cn3c2CC(=O)N(C)C)cc1 [ZOLPIDEM] | 0.54 |  | 2.1 | 1.7 | 4.3 |
| O=C(O)Cn1c(=O)c(=O)[nH]c2cc([N+](=O)[O-])c(-n3ccnc3)cc21 [ZONAMPANEL] | 0.19 |  | 0.6 | 0.78 | 5.3 |
| CN1CCN(C(=O)OC2c3nccnc3C(=O)N2c2ccc(Cl)cn2)CC1 (stereo unspecified) [ZOPICLONE] | 1.3 |  | 6.6 | 5.2 | 3.3 |
| CO[C@H]1C[C@@H]2CC[C@@H](C)[C@@](O)(O2)C(=O)C(=O)N2CCCC[C@H]2C(=O)O[C@H]([C@H](C)C[C@@H]2CC[C@H](n3cnnn3)[C@H](OC)C2)CC(=O)[C@H](C)/C=C(\C)[C@@H](O)[C@@H](OC)C(=O)[C@H](C)C[C@H](C)/C=C/C=C/C=C/1C [ZOTAROLIMUS] | 1.3 |  | 33 | 35 | 0.67 |

From ChEMBL document CHEMBL1614632, “Trend analysis of a database of intravenous pharmacokinetic parameters in humans for 670 drug compounds” (Drug Metab Dispos, 2008)
